{
  "source": "paper PMC7036871",
  "about": "“Identification and Characterization of pantocin wh-1, a Novel Cyclic Polypeptide Produced by Pantoea dispersa W18” (Molecules, 2020)",
  "key": {"E. coli O157": {"test_system": "E. coli O157", "assay": "Antimicrobial spectrum, microporous dilution method", "type": "cell-based", "design": "key: -: no inhibitory activity; +: Inhibit the growth of less than 10% amount of the initial bacteria; ++: Inhibit the growth of less than 50% amount of the initial bacteria; +++: Inhibit the growth of initial bacteria completely", "settings": "E. coli O157, medium LB"}, "proteinase K": {"target": "proteinase K (Parengyodontium album, UniProt P06873)", "sequence (P06873 106-384)": "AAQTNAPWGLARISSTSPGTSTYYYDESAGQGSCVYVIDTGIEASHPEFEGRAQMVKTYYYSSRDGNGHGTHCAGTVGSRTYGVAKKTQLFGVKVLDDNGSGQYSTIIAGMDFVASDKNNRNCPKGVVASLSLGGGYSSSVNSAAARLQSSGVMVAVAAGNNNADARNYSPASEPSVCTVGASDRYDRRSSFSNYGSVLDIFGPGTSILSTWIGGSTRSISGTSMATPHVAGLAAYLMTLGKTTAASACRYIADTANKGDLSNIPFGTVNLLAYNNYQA", "assay": "Effect of enzymes on antibacterial activity: proteinase K", "type": "in vitro ADME", "description": "(§1) Furthermore, the antibacterial activity of pantocin wh-1 also retained nearly 100% of the initial activity within a broad pH range (pH 2–12).\n(§2) The effect of various enzymes, pH, and temperature on pantocin wh-1 activity was detected as described by J.-M. Chobert et al. with a slight modification. Proteinase K, trypsin, catalase, lysozyme, DNAse, and RNAse were used to test the antibacterial activity of pantocinwh-1. To analyze the effect of different pH values on the antibacterial activity of pantocin wh-1, the sample of pantocin wh-1 was exposed to buffer with a pH value of 2–12 for 1 h at 25 °C. The effect of temperature on the anti-mycobacterial activity of pantocin wh-1 was determined by incubating pantocin wh-1 at 50 °C and 100 °C for 60 min, as well as at 121 °C for 15 min, and then detecting the bactericidal activity against M. smegmatis mc^2 155."}, "trypsin": {"test_system": "trypsin", "assay": "Effect of enzymes on antibacterial activity: trypsin", "type": "in vitro ADME", "description": "as §1, §2"}, "RNase": {"target": "RNase (Bos taurus, UniProt P61823)", "sequence (P61823 27-150)": "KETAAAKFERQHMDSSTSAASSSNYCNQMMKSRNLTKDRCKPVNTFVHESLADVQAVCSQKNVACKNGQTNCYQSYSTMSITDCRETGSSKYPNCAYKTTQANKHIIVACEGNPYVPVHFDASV", "assay": "Effect of enzymes on antibacterial activity: RNase", "type": "in vitro ADME", "description": "as §1, §2"}, "[1]": {"test_system": "autoluminescent H37Ra (UAlRa)", "design": "species or system BALB/c female mice", "settings": "mouse, in vivo"}, "M. bovis BCG": {"test_system": "M. bovis BCG", "type": "cell-based", "design": "key: -: no inhibitory activity; +: Inhibit the growth of less than 10% amount of the initial bacteria; ++: Inhibit the growth of less than 50% amount of the initial bacteria; +++: Inhibit the growth of initial bacteria completely", "settings": "medium 7H9"}, "[2]": {"assay": "Effect of pH on antibacterial activity", "type": "physicochemical", "settings": "for Residual activity: compared with antimicrobial activity before the treatment", "description": "as §1, §2"}, "S. aureus N315": {"test_system": "S. aureus N315", "assay": "Antimicrobial spectrum, microporous dilution method", "type": "cell-based", "design": "key: -: no inhibitory activity; +: Inhibit the growth of less than 10% amount of the initial bacteria; ++: Inhibit the growth of less than 50% amount of the initial bacteria; +++: Inhibit the growth of initial bacteria completely", "settings": "S. aureus N315, medium LB"}, "M. tuberculosis H37Ra": {"test_system": "M. tuberculosis H37Ra", "type": "cell-based, Mycobacterium tuberculosis", "design": "key: -: no inhibitory activity; +: Inhibit the growth of less than 10% amount of the initial bacteria; ++: Inhibit the growth of less than 50% amount of the initial bacteria; +++: Inhibit the growth of initial bacteria completely", "settings": "M. tuberculosis Ra, medium 7H9"}, "S. suis": {"test_system": "S. suis", "assay": "Antimicrobial spectrum, microporous dilution method", "type": "cell-based, Streptococcus suis", "experimental": "(§3) In this paper, the microporous dilution method was used to detect the antibacterial spectrum of pantocin wh-1 against Gram-negative and -positive bacteria. […] The time kill studies were determined over 8 h with M. smegmatis mc^2 155 being exposed to 0.5, 1, 2, or 4 × MIC of pantocin wh-1. […] At 2 × MIC and 4 × MIC, pantocin wh-1 caused bacterial eradication was completed approximately after 4 h.\nThe antibacterial activity of the pantocin wh-1 was detected by the microscale optical density assay (MODA) method. Briefly, 90 μL of the dilutions of pantocin wh-1, 100 μL 2 × 7H9 medium, and 10 μL of a log phase indicator strain were co-incubated in the 96-well plate at 37 °C for 48 h. For control groups, 90 μL of the dilutions of pantocin wh-1 were replaced by an equal volume of sterile water. After incubation, the 96 well microplate was measured by a microplate reader at a 600 nm wavelength (Biotek synergyH1, Biotek, Winooski, VT, USA). The amount of pantocin wh-1 produced by P. dispersa W18 was determined using two fold dilutions. […] The results were expressed in AU/mL. The MIC was defined as the last dilution of pantocin wh-1 sufficient to prevent indicator strain growth in vitro."}, "[3]": {"assay": "Effect of heat on antibacterial activity", "type": "physicochemical", "settings": "for Residual activity: compared with antimicrobial activity before the treatment", "description": "as §1\nas §2, with “[…],” for “anti-mycobacterial activity of pantocin wh-1 was determined by incubating pantocin wh-1 at 50 °C and 100 °C for 60 min,”"}, "M. smegmatis mc^2 155": {"test_system": "M. smegmatis mc^2 155", "assay": "Time kill study", "type": "cell-based, Mycobacterium smegmatis", "experimental": "as §3\nFor detection of the time kill study, 100 μL of the indicator strain in exponential phase were added to tubes containing 5 mL of the modified 7H9 medium with pantocin wh-1 at 0.5, 1, 2, and 4 × MIC. No pantocin wh-1 was added in the control tube, then incubated at 37 °C for 8 h. At the end of each time period, tenfold serial dilutions were prepared with 0.5 mM phosphate buffer, and 100 μL cultures were plated in triplicate onto the 7H10 plates. For anti-tuberculosis activities in vivo, an auto-luminescent strain of M. tuberculosis H37Ra (AlRa) described by Tianyu Zhang was used to assess the efficacy of pantocin wh-1 in a mouse model. The relative light unit (RLU) count was determined to parallel CFU counts during the active phase of bacterial growth. AlRa with OD600 of 0.1 was injected into female BALB/c mice by tail vein. The day after injection (Day 0), RLU values were detected for 6 days in triplicate."}, "lysozyme": {"test_system": "lysozyme", "assay": "Effect of enzymes on antibacterial activity: lysozyme", "type": "in vitro ADME", "description": "as §1, §2"}},
  "note": "“Also recorded” adds a separate entry of the source. Where a SMILES comes first, the peptide text is derived from it.",
  "data": [
    {"smiles": "CSCC[C@@H]1NC(=O)[C@H](C(C)C)NC(=O)[C@H](Cc2c[nH]c3ccccc23)NC(=O)[C@H](C(C)C)NC(=O)[C@H](C)NC(=O)[C@H](CS)NC(=O)[C@H](CC(N)=O)NC(=O)[C@H](Cc2ccccc2)NC(=O)CNC(=O)[C@H](Cc2ccc(O)cc2)NC(=O)CNC(=O)[C@H](Cc2ccccc2)NC(=O)[C@H](C(C)C)NC(=O)[C@H](Cc2ccc(O)cc2)NC(=O)[C@H](CS)NC(=O)[C@H](Cc2c[nH]c3ccccc23)NC1=O", "note": "[pantocin wh-1] (cyclo(AVWVMWCYVFGYGFNC))", "values": [
      {"measurement": "Inhibition activity", "setting": "E. coli O157", "value": "-"},
      {"measurement": "inhibitory activity after proteinase K", "setting": "proteinase K", "value": "inactivated completely"},
      {"measurement": "inhibitory activity after trypsin", "setting": "trypsin; trypsin", "value": "not completely inactivated; also recorded: partial sensitivity"},
      {"measurement": "Residual activity", "setting": "trypsin; trypsin treatment, compared with antimicrobial activity before the treatment", "value": 27, "unit": "%"},
      {"measurement": "antibacterial activity after RNase A", "setting": "RNase; RNase A", "value": "insensitive"},
      {"measurement": "Residual activity", "setting": "RNase; RNase treatment, compared with antimicrobial activity before the treatment", "value": 100, "unit": "%"},
      {"measurement": "relative light unit (RLU) value", "setting": "[1]", "value": "significant decrease"},
      {"measurement": "therapeutic effect compared with streptomycin", "setting": "[1]", "value": "did not exceed that of streptomycin"},
      {"measurement": "Inhibition activity", "setting": "M. bovis BCG", "value": "+++"},
      {"measurement": "retained initial antibacterial activity", "setting": "[2]; broad pH range (pH 2–12)", "value": "~100", "unit": "%"},
      {"measurement": "Residual activity", "setting": "[2]; pH2-6, buffer 1 h at 25 °C", "value": 90, "unit": "%"},
      {"measurement": "Residual activity", "setting": "[2]; pH6-8, buffer 1 h at 25 °C", "value": 100, "unit": "%"},
      {"measurement": "Residual activity", "setting": "[2]; pH8-12, buffer 1 h at 25 °C", "value": 85, "unit": "%"},
      {"measurement": "Inhibition activity", "setting": "S. aureus N315", "value": "-"},
      {"measurement": "Inhibition activity", "setting": "M. tuberculosis H37Ra", "value": "+++"},
      {"measurement": "Inhibition activity", "setting": "S. suis; S. suis, medium BHI", "value": "+ (Inhibit the growth of less than 10% amount of the initial bacteria)"},
      {"measurement": "inhibitory activity", "setting": "S. suis; Streptococcus suis", "value": "partial inhibitory activity"},
      {"measurement": "Residual activity", "setting": "[3]; Heat 50℃/ 30 min", "value": 100, "unit": "%"},
      {"measurement": "Residual activity", "setting": "[3]; Heat 100℃/ 30 min", "value": 90, "unit": "%"},
      {"measurement": "Residual activity", "setting": "[3]; Heat 121℃/ 15 min", "value": 72, "unit": "%"},
      {"measurement": "retained activity", "setting": "[3]; autoclaving at 121 °C for 30 min", "value": 72, "unit": "%"},
      {"measurement": "heat stability", "setting": "[3]; incubation at 100 °C for 30 min", "value": "heat stable"},
      {"measurement": "decline in colony forming units (CFU)", "setting": "M. smegmatis mc^2 155; 0.5 and 1 × MIC, within the first 2 h, followed by bacterial regeneration to near the initial concentration", "value": "> 3", "unit": "log"},
      {"measurement": "time to completed bacterial eradication", "setting": "M. smegmatis mc^2 155; 2 × MIC and 4 × MIC", "value": "~4", "unit": "h"},
      {"measurement": "antibacterial activity after lysozyme", "setting": "lysozyme; lysozyme", "value": "insensitive"},
      {"measurement": "Residual activity", "setting": "lysozyme; lysozyme treatment, compared with antimicrobial activity before the treatment", "value": 100, "unit": "%"},
      {"measurement": "activity after pepsin", "setting": "pepsin", "value": "not completely inactivated"}
    ]}
  ]
}
